{
  "source": "PubChem BioAssay (NCI)",
  "assay_in_all_cases": "growth of human tumour cells (NCI), 48 h",
  "key": {"SW-620 colon": {"test_system": "SW-620 colon"}, "SN12C renal": {"test_system": "SN12C renal"}, "SK-MEL-28 melanoma": {"test_system": "SK-MEL-28 melanoma"}, "HCT-116 colon": {"test_system": "HCT-116 colon"}, "MALME-3M melanoma": {"test_system": "MALME-3M melanoma"}, "SK-OV-3 ovarian": {"test_system": "SK-OV-3 ovarian"}, "HCT-15 colon": {"test_system": "HCT-15 colon"}, "ACHN renal": {"test_system": "ACHN renal"}, "SNB-19 CNS": {"test_system": "SNB-19 CNS"}, "UACC-62 melanoma": {"test_system": "UACC-62 melanoma"}, "UO-31 renal": {"test_system": "UO-31 renal"}, "SF-539 CNS": {"test_system": "SF-539 CNS"}, "HL-60(TB) leukemia": {"test_system": "HL-60(TB) leukemia"}, "M14 melanoma": {"test_system": "M14 melanoma"}, "NCI-H226 lung": {"test_system": "NCI-H226 lung"}, "RXF 393 renal": {"test_system": "RXF 393 renal"}, "KM12 colon": {"test_system": "KM12 colon"}, "OVCAR-8 ovarian": {"test_system": "OVCAR-8 ovarian"}, "OVCAR-5 ovarian": {"test_system": "OVCAR-5 ovarian"}, "BT-549 breast": {"test_system": "BT-549 breast"}, "SNB-75 CNS": {"test_system": "SNB-75 CNS"}, "MDA-MB-231 breast": {"test_system": "MDA-MB-231 breast"}, "MOLT-4 leukemia": {"test_system": "MOLT-4 leukemia"}, "PC-3 prostate": {"test_system": "PC-3 prostate"}, "NCI-H522 lung": {"test_system": "NCI-H522 lung"}, "A498 renal": {"test_system": "A498 renal"}, "U251 CNS": {"test_system": "U251 CNS"}, "RPMI-8226 leukemia": {"test_system": "RPMI-8226 leukemia"}},
  "note": "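Method: 48-hour compound exposure of cells in 96-well plates, five concentrations, linear interpolation of endpoints. Here, GI50 denotes the concentration required for 50% inhibition of growth. TGI: total growth inhibition.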",
  "data": [
    {"smiles": "C=C1C(=O)O[C@H]2[C@H]1CC/C(CNC(=O)c1cccc3ccccc13)=C\\CC[C@@]1(C)O[C@@H]21", "values": [
      {"measurement": "TGI", "setting": "SW-620 colon", "result": 3.04, "unit": "µM"},
      {"measurement": "GI50", "setting": "SN12C renal", "result": 1.96, "unit": "µM"},
      {"measurement": "TGI", "setting": "SN12C renal", "result": 5.91, "unit": "µM"},
      {"measurement": "GI50", "setting": "SK-MEL-28 melanoma", "result": 2.78, "unit": "µM"},
      {"measurement": "TGI", "setting": "SK-MEL-28 melanoma", "result": 10.7, "unit": "µM"},
      {"measurement": "GI50", "setting": "HCT-116 colon", "result": 1.03, "unit": "µM"},
      {"measurement": "TGI", "setting": "HCT-116 colon", "result": 2.32, "unit": "µM"},
      {"measurement": "GI50", "setting": "MALME-3M melanoma", "result": 1.41, "unit": "µM"},
      {"measurement": "TGI", "setting": "MALME-3M melanoma", "result": 3.23, "unit": "µM"},
      {"measurement": "GI50", "setting": "SK-OV-3 ovarian", "result": 17.1, "unit": "µM"},
      {"measurement": "TGI", "setting": "SK-OV-3 ovarian", "result": 33.1, "unit": "µM"},
      {"measurement": "GI50", "setting": "HCT-15 colon", "result": 1.31, "unit": "µM"},
      {"measurement": "TGI", "setting": "HCT-15 colon", "result": 3.14, "unit": "µM"},
      {"measurement": "GI50", "setting": "ACHN renal", "result": 1.52, "unit": "µM"},
      {"measurement": "TGI", "setting": "ACHN renal", "result": 6.3, "unit": "µM"},
      {"measurement": "GI50", "setting": "SNB-19 CNS", "result": 5.96, "unit": "µM"},
      {"measurement": "TGI", "setting": "SNB-19 CNS", "result": 20, "unit": "µM"},
      {"measurement": "GI50", "setting": "UACC-62 melanoma", "result": 1.64, "unit": "µM"},
      {"measurement": "TGI", "setting": "UACC-62 melanoma", "result": 3.9, "unit": "µM"},
      {"measurement": "GI50", "setting": "UO-31 renal", "result": 1.44, "unit": "µM"},
      {"measurement": "TGI", "setting": "UO-31 renal", "result": 2.94, "unit": "µM"},
      {"measurement": "GI50", "setting": "SF-539 CNS", "result": 1.85, "unit": "µM"},
      {"measurement": "TGI", "setting": "SF-539 CNS", "result": 5.11, "unit": "µM"},
      {"measurement": "GI50", "setting": "HL-60(TB) leukemia", "result": 1.34, "unit": "µM"},
      {"measurement": "TGI", "setting": "HL-60(TB) leukemia", "result": 4.38, "unit": "µM"},
      {"measurement": "GI50", "setting": "M14 melanoma", "result": 1.57, "unit": "µM"},
      {"measurement": "TGI", "setting": "M14 melanoma", "result": 3.76, "unit": "µM"},
      {"measurement": "GI50", "setting": "NCI-H226 lung", "result": 29.1, "unit": "µM"},
      {"measurement": "TGI", "setting": "NCI-H226 lung", "result": 77.6, "unit": "µM"},
      {"measurement": "GI50", "setting": "RXF 393 renal", "result": 1.18, "unit": "µM"},
      {"measurement": "TGI", "setting": "RXF 393 renal", "result": 2.6, "unit": "µM"},
      {"measurement": "GI50", "setting": "KM12 colon", "result": 5.25, "unit": "µM"},
      {"measurement": "TGI", "setting": "KM12 colon", "result": 21, "unit": "µM"},
      {"measurement": "GI50", "setting": "OVCAR-8 ovarian", "result": 3.29, "unit": "µM"},
      {"measurement": "TGI", "setting": "OVCAR-8 ovarian", "result": 12, "unit": "µM"},
      {"measurement": "GI50", "setting": "OVCAR-5 ovarian", "result": 3.6, "unit": "µM"},
      {"measurement": "TGI", "setting": "OVCAR-5 ovarian", "result": 14, "unit": "µM"},
      {"measurement": "GI50", "setting": "BT-549 breast", "result": 1.58, "unit": "µM"},
      {"measurement": "TGI", "setting": "BT-549 breast", "result": 3.87, "unit": "µM"},
      {"measurement": "GI50", "setting": "SNB-75 CNS", "result": 11.9, "unit": "µM"},
      {"measurement": "TGI", "setting": "SNB-75 CNS", "result": 27.1, "unit": "µM"},
      {"measurement": "GI50", "setting": "MDA-MB-231 breast", "result": 1.59, "unit": "µM"},
      {"measurement": "TGI", "setting": "MDA-MB-231 breast", "result": 4, "unit": "µM"},
      {"measurement": "GI50", "setting": "MOLT-4 leukemia", "result": 1.7, "unit": "µM"},
      {"measurement": "TGI", "setting": "MOLT-4 leukemia", "result": 5.62, "unit": "µM"},
      {"measurement": "GI50", "setting": "PC-3 prostate", "result": 1.79, "unit": "µM"},
      {"measurement": "TGI", "setting": "PC-3 prostate", "result": 4, "unit": "µM"},
      {"measurement": "GI50", "setting": "NCI-H522 lung", "result": 1.36, "unit": "µM"},
      {"measurement": "TGI", "setting": "NCI-H522 lung", "result": 2.95, "unit": "µM"},
      {"measurement": "GI50", "setting": "A498 renal", "result": 5.93, "unit": "µM"},
      {"measurement": "TGI", "setting": "A498 renal", "result": 19.2, "unit": "µM"},
      {"measurement": "GI50", "setting": "U251 CNS", "result": 5.2, "unit": "µM"},
      {"measurement": "TGI", "setting": "U251 CNS", "result": 18.2, "unit": "µM"},
      {"measurement": "GI50", "setting": "RPMI-8226 leukemia", "result": 2.02, "unit": "µM"},
      {"measurement": "TGI", "setting": "RPMI-8226 leukemia", "result": 6.4, "unit": "µM"}
    ]}
  ]
}
